In data set [1] the test system is mucins. The arrangement: method as in PMID 26169405, PMID 7535039, PMID 33405639. The conditions noted are these: polycationic drugs; cited from earlier work.
The nature of data set [2]: PermeaPad 96-well plate permeability assay (absence of mucus). The conditions noted are these: for Papp at 5 h: not told, pH 7.4, PermeaPad without mucus. The data set is classed as in vitro ADME. The protocol:
(§1) The permeability assay was conducted in the absence (i.e., PermeaPad) and presence (i.e., PermeaPad + mucus) of the pathological mucus model. Stock solutions of drugs were prepared at 10 mg/mL in DMSO; working solutions were prepared by diluting the stocks within soluble concentration ranges (either 100 or 500 µM) in a 10 mM phosphate buffer (PB) (pH 7.4, 5% DMSO). The donor compartments of the PermeaPad plate were then filled with 200 µL of the drug working solution, while the acceptor compartments were filled with 400 µL of PB buffer (5% DMSO). […] (1) Papp=dQ/dt/C0×A where dQ represents the quantity of drug expressed as moles permeated into the acceptor compartment at time t (18.000 s), C0 is the initial concentration in the donor compartment, and A is the area of the PermeaPad membrane (0.15 cm^2).
(§2) The concentration of the drug in each acceptor well was determined using a Varian HPLC equipped with a 410 autosampler and a C18 column (150 × 2 mm, […], 100) and detected on a Varian 320 MS TQ mass spectrometer equipped with an electrospray ionization (ESI) source operating in positive or negative mode. The detector was used in multiple-reaction monitoring (MRM). Mobile phases composed of acetonitrile and water, 0.1% formic acid, or ammonium acetate (5 mM, pH 6.6), were pumped at 200 µL/min, following a gradient program. The injection volume was 5 µL. Quantifications were achieved according to a seven-point calibration curve specific to each compound.
(§3) A minimum of three replicates were performed for each compound, with and without mucus. All the quantitative data are reported as the mean ± standard deviation (SD). Statistical significance was calculated by applying the Student’s t test; a p < 0.05 was considered to be statistically significant and is indicated with asterisks (i.e., * p < 0.05, ** p < 0.01, *** p < 0.001, **** p < 0.0001).

A short description of data set [3]: PermeaPad + mucus permeability assay (cystic fibrosis mucus model on PermeaPad 96-well plate). The data set is classed as in vitro ADME. The conditions noted are these: for Effect of mucus on Papp: Papp vs. Papp mucus, significance at p < 0.05; for Effect of mucus on Papp / statistical significance of the difference in permeation with vs without mucus: Student's t-test; for Papp at 5 h: not told, PermeaPad + mucus model, donor 100 or 500 µM in 10 mM PB pH 7.4, 5% DMSO, single timepoint 5 h, mean (±SD), n>=3, read-out: Papp mucus ± SD • 10^6; for permeation in the presence of mucus versus without mucus: PermeaPad + mucus vs PermeaPad; for statistical significance of the difference in permeation with vs without mucus: p < 0.05. As to the method: The pathological mucus model produced by Bac3Gel Lda. was prepared as previously described. […] The mucin suspension was prepared in mQ water.
Next, 20 µL of the mucus mixture was pipetted into the donor compartment of the PermeaPad plate (i.e., PermeaPad + mucus, from here on). The donor plate was carefully shaken to homogeneously distribute the mucus over the entire surface of the well. This step is also useful to get rid of the air bubbles that can form during the mixing of the mucus reagents. Before running the permeation measurements, the mucus was allowed to crosslink overnight by storing the PermeaPad plate at 4 °C.
as §1, §2, §3

The mark [4] stands for this setting: 5 h, extremes of measured range, trametinib value set because below limit of detection, read-out: apparent permeability (Papp).
[5] abbreviates: donor 100 or 500 µM in 10 mM PB pH 7.4, 5% DMSO, single timepoint 5 h, mean (±SD), n>=3, read-out: Papp ± SD • 10^6.

With colistin, in data set [1], the interaction with mucins result is “strongly interact with mucins”.

Regarding `O=C(Nc1c(Cl)cncc1Cl)c1ccc(OC(F)F)c(OCC2CC2)c1` [Roflumilast], the Papp at 5 h amounted to 0.0079 ×10⁻⁶ cm/s in data set [2] (setting [4]) and 0.01 ×10⁻⁶ cm/s in data set [2] (setting [5]). Also, the “Effect of mucus on Papp” value in data set [3] is recorded as “None”.

As for `CCn1cc(C(=O)O)c(=O)c2cc(F)c(N3CCNCC3)cc21` [Norfloxacin], in data set [2] (setting [5]), the Papp at 5 h amounted to 1.7 ×10⁻⁶ cm/s. In data set [3], the “Effect of mucus on Papp” value is “None” and the Papp at 5 h worked out at 1.61 ×10⁻⁶ cm/s.

As to `CO[C@H]1/C=C/O[C@@]2(C)Oc3c(C)c(O)c4c(O)c(c(/C=N/N5CCN(C)CC5)c(O)c4c3C2=O)NC(=O)/C(C)=C\C=C\[C@H](C)[C@H](O)[C@@H](C)[C@@H](O)[C@@H](C)[C@H](OC(C)=O)[C@@H]1C` [Rifampicin], the Papp at 5 h turned out to be 0.7 ×10⁻⁶ cm/s in data set [2] (setting [5]) and 0.71 ×10⁻⁶ cm/s in data set [3]. Moreover, in data set [3], the “Effect of mucus on Papp” value is “None”.

For the compound `CC(=O)Nc1ccc(O)cc1` [Acetaminophen], the Papp at 5 h in data set [2] (setting [5]) stood at 4.55 ×10⁻⁶ cm/s. In data set [3], the “Effect of mucus on Papp” value is recorded as “Reduced” and the Papp at 5 h is 1.77 ×10⁻⁶ cm/s.

Turning to `CCN(CC)CCOC(=O)c1ccc(N)cc1` [Procaine], the values for the Papp at 5 h in data set [2] (setting [5]) and in data set [3] were 2.67 ×10⁻⁶ cm/s and 0.6 ×10⁻⁶ cm/s, respectively. The “Effect of mucus on Papp” value in data set [3] is listed as “Reduced”.

Consider `CCOC(=O)C1=C(COCCN)NC(C)=C(C(=O)OC)C1c1ccccc1Cl` (centres unmarked) [Amlodipine], for which, in data set [2] (setting [5]), the Papp at 5 h was found to be 0.66 ×10⁻⁶ cm/s. In data set [3], the “Effect of mucus on Papp” value is “None” and the apparent permeability (Papp) at 5 h was found to be 0.35 ×10⁻⁶ cm/s.

On to `CC(C)(C)NC(=O)[C@@H]1C[C@@H]2CCCC[C@@H]2CN1C[C@@H](O)[C@H](Cc1ccccc1)NC(=O)[C@H](CC(N)=O)NC(=O)c1ccc2ccccc2n1` [Saquinavir], for which the Papp at 5 h was determined as 0.08 ×10⁻⁶ cm/s in data set [2] (setting [5]) and 0.01 ×10⁻⁶ cm/s in data set [3]. Besides, in data set [3], the “Effect of mucus on Papp” value is “Reduced”.

Take `CC(C)Cc1ccc(C(C)C(=O)O)cc1` (centres unmarked) [Ibuprofen]: the apparent permeability (Papp) at 5 h in data set [2] (setting [5]) came out at 0.94 ×10⁻⁶ cm/s. In addition, in data set [3], the “Effect of mucus on Papp” value was “None”, the “permeation in the presence of mucus versus without mucus” value was “higher permeation in the presence of mucus”, the “statistical significance of the difference in permeation with vs without mucus” value is recorded as “not statistically significant” and the apparent permeability (Papp) at 5 h amounted to 1.2 ×10⁻⁶ cm/s.

On to polymyxin, for which the interaction with mucins result in data set [1] was “strongly interact with mucins”.

Turning to `NC[C@H]1O[C@H](O[C@H]2[C@H](O)[C@@H](O[C@H]3O[C@H](CO)[C@@H](O)[C@H](N)[C@H]3O)[C@H](N)C[C@@H]2N)[C@H](N)C[C@@H]1O` [tobramycin], the interaction with mucins entry in data set [1] was “strongly interact with mucins”.

Regarding `CN(C)[C@@H]1C(O)=C(C(N)=O)C(=O)[C@@]2(O)C(O)=C3C(=O)c4c(O)cccc4[C@@](C)(O)[C@H]3C[C@@H]12` [Tetracycline], in data set [3], the “Effect of mucus on Papp” value is given as “Reduced” and the apparent permeability (Papp) at 5 h is 0.2 ×10⁻⁶ cm/s.

Regarding `O=C(O)c1ccccc1O` [Salicylic acid], the apparent permeability coefficient (Papp) at 5 h in data set [2] (setting [5]) was 2.71 ×10⁻⁶ cm/s. Also, in data set [3], the “Effect of mucus on Papp” value is recorded as “None”, the “permeation in the presence of mucus versus without mucus” value is listed as “higher permeation in the presence of mucus”, the “statistical significance of the difference in permeation with vs without mucus” value is “not statistically significant” and the Papp at 5 h was determined as 4.89 ×10⁻⁶ cm/s.

On to `C=CC(=O)N1CCN(c2nc(=O)n(-c3c(C)ccnc3C(C)C)c3nc(-c4c(O)cccc4F)c(F)cc23)[C@@H](C)C1` [Sotorasib], for which, in data set [2] (setting [5]), the apparent permeability (Papp) at 5 h turned out to be 0.48 ×10⁻⁶ cm/s. Also, in data set [3], the “Effect of mucus on Papp” value is reported as “None” and the Papp at 5 h was found to be 0.21 ×10⁻⁶ cm/s.

Regarding `Nc1nc2c(ncn2COCCO)c(=O)[nH]1` [Acyclovir], the values for the Papp at 5 h in data set [2] (setting [5]) and in data set [3] were 2.17 ×10⁻⁶ cm/s and 0.83 ×10⁻⁶ cm/s, respectively. Besides, in data set [3], the “Effect of mucus on Papp” value was “Reduced”.

With `NC(=O)c1nc(F)c[nH]c1=O` [Favipiravir], the Papp at 5 h in data set [2] (setting [5]) came out at 5.15 ×10⁻⁶ cm/s. For the same compound, in data set [3], the “Effect of mucus on Papp” value is recorded as “Increased”, the “permeation in the presence of mucus versus without mucus” value is on record as “higher permeation in the presence of mucus” and the Papp at 5 h amounted to 6.18 ×10⁻⁶ cm/s.

With `CN(C)C(=O)COC(=O)Cc1ccc(OC(=O)c2ccc(NC(=N)N)cc2)cc1` [Camostat], in data set [2] (setting [5]), the Papp at 5 h amounted to 2.16 ×10⁻⁶ cm/s. Besides, in data set [3], the “Effect of mucus on Papp” value is “Reduced” and the apparent permeability (Papp) at 5 h was found to be 0.81 ×10⁻⁶ cm/s.

Consider `CO[C@H]1/C=C/O[C@@]2(C)Oc3c(C)c(O)c4c(O)c(c5c(nc6cc(C)ccn65)c4c3C2=O)NC(=O)/C(C)=C\C=C\[C@H](C)[C@H](O)[C@@H](C)[C@@H](O)[C@@H](C)[C@H](OC(C)=O)[C@@H]1C` [Rifaximin], for which the Papp at 5 h in data set [2] (setting [5]) is 0.09 ×10⁻⁶ cm/s. Besides, in data set [3], the “Effect of mucus on Papp” value is reported as “None” and the Papp at 5 h is 0.08 ×10⁻⁶ cm/s.

Regarding `CCS(=O)(=O)N1CC(CC#N)(n2cc(-c3ncnc4[nH]ccc34)cn2)C1` [Baricitinib], the Papp at 5 h in data set [2] (setting [5]) was 3.06 ×10⁻⁶ cm/s. For the same compound, in data set [3], the “Effect of mucus on Papp” value is reported as “Reduced” and the apparent permeability (Papp) at 5 h worked out at 0.87 ×10⁻⁶ cm/s.

Turning to `CC(C)NCC(O)COc1cccc2ccccc12` (centres unmarked) [Propranolol], the apparent permeability (Papp) at 5 h in data set [2] (setting [5]) stood at 4.26 ×10⁻⁶ cm/s; in data set [3] it was 1.08 ×10⁻⁶ cm/s. Moreover, in data set [3], the “Effect of mucus on Papp” value was “Reduced”.

Turning to `CC(C(=O)O)c1cccc(C(=O)c2ccccc2)c1` (centres unmarked) [Ketoprofen], the “permeation in the presence of mucus versus without mucus” value in data set [3] is reported as “higher permeation in the presence of mucus”.

Regarding `C[C@H]1[C@H](NC(=O)/C(=N\OC(C)(C)C(=O)O)c2csc(N)n2)C(=O)N1S(=O)(=O)O` [Aztreonam], the Papp at 5 h in data set [2] (setting [5]) is 0.18 ×10⁻⁶ cm/s; in data set [3], 0.17 ×10⁻⁶ cm/s. Besides, the “Effect of mucus on Papp” value in data set [3] is on record as “None”.

For `COC(=O)N[C@H](C(=O)N[C@@H](Cc1ccccc1)[C@@H](O)CN(Cc1ccc(-c2ccccn2)cc1)NC(=O)[C@@H](NC(=O)OC)C(C)(C)C)C(C)(C)C` [Atazanavir], in data set [2] (setting [5]), the Papp at 5 h stood at 0.19 ×10⁻⁶ cm/s. In data set [3], the “Effect of mucus on Papp” value was “None” and the Papp at 5 h stood at 0.13 ×10⁻⁶ cm/s.

`CC(=O)Nc1cccc(-n2c(=O)n(C3CC3)c(=O)c3c(Nc4ccc(I)cc4F)n(C)c(=O)c(C)c32)c1` [Trametinib]: the “concentration in the acceptor compartment” value in data set [2] (PermeaPad, 5 h, HPLC-ESI-MS) is given as “below the limit of detection”. In data set [2] (setting [4]), the Papp at 5 h worked out at 0.001 ×10⁻⁶ cm/s. In data set [3], the “Effect of mucus on Papp” value is listed as “None”.

Take `CC(C)(C)NCC(O)c1ccc(O)c(CO)c1` (centres unmarked) [Salbutamol]: in data set [2] (setting [5]), the Papp at 5 h came out at 2.34 ×10⁻⁶ cm/s. Moreover, in data set [3], the “Effect of mucus on Papp” value is on record as “Reduced” and the apparent permeability coefficient (Papp) at 5 h came out at 0.64 ×10⁻⁶ cm/s.

As for `CC(CCc1ccccc1)NCC(O)c1ccc(O)c(C(N)=O)c1` (centres unmarked) [Labetalol], the Papp at 5 h in data set [2] (setting [5]) stood at 1.81 ×10⁻⁶ cm/s. For the same compound, in data set [3], the “Effect of mucus on Papp” value is recorded as “Reduced” and the apparent permeability (Papp) at 5 h worked out at 1.11 ×10⁻⁶ cm/s.

Source of the values: paper PMC9966667, “Permeability Assessment of a High-Throughput Mucosal Platform” (Pharmaceutics, 2023).
